# US7294755B1 (priority 1997, dated 2007)
# “And” between values parts separate entries of the source, which are not always exact repeats. Equal entries are not always repeated.
# Experiments:
# testis germ cells = experiment: Busulfan depopulation of testis before microinjection (Example 15); format: in vivo, mice; conditions: IP 4 μg/g body wt.
# Method: The method of delivery (Winston, R. M. L., Microsurgical reanastomosis of the rabbit oviduct and its functional and pathological sequelae, Brit. J. Obstet. Gynaecol. 82:513-522 ([1975]) of viral particles into a single vas efferens, and thence to the seminiferous tubules, was first optimized in several mice (FIGS. 1a-1d). The mice were treated with busulfan (Myleran: Glaxo Wellcome) 14 days before microsurgery to maximize the chance of viral particles gaining access to spermatogonia, which lie on the basement lamella of the tubules. Busulfan, an alkylating cytotoxic agent, depopulates the testis (Bucci, L. and Meistrich, M., Effects of busulfan on murine spermatogenesis: cytotoxicity, sterility, sperm abnormalities, and dominant lethal mutations, Mut. Res. 176:259-268 [1987]). […] This implies that stem cells remain viable and can repopulate the testis. Stem cell spermatogonia are known to be resistant to insults, often surviving when other germ cell types are destroyed (Huckins, C. & Oakberg, W. F., Morphological and quantitative analysis of spermatogonia in mouse testes using whole mounted seminiferous tubules. II. The irradiated testes, Anat. Rec. 192:529-42 [1978]).
# [1] = system: male germ cells of the testis; experiment: Depopulating the recipient testis of male germ cells, histologic analysis; format: in vivo, C57BL/6J mice; conditions: two months after treatment
# Method: Comparison of Depopulating Treatments. Eight-week-old C57BL/6J mice were allowed to acclimatize for a few days and then were assigned to one of the following three treatment groups. They received: (1) 400 Rad gamma irradiation; (2)4 μg/g body weight of busulfan (1,4-butanediol dimethanesulphonate; Myleran, Glaxo Wellcome); or (3) a combination treatment of busulfan (4 μg/g body wt) followed one week later by 400 Rad of gamma irradiation (“busulfan/400 Rad” treatment). A fourth group of untreated C57BL/6J mice of the same age as the treatment groups was used as a control. There were 24 mice in each treatment group, and 3 mice were sacrificed at each of the following time intervals after treatment: 5 hours, 24 hours, 48 hours, 72 hours, 1 week, 2 weeks, I month and 2 months after treatment. […]
# Delivery of an Alkylating Agent to Recipient Vertebrates. The male mice receiving busulfan received a dose of 4 μg busulfan per g body wt. The busulfan was first dissolved 8 mg/mL in 100% dimethyl sulfoxide (DMSO) then, immediately before injection, was diluted 1:1 in phosphate buffered saline, pH 7.4. The mice were injected with the diluted busulfan solution intraperitoneally. Irradiation Treatment of Recipient Vertebrates. For the gamma irradiation treatment, mice were anesthetized with 0.017 mL/g body wt. of 2.5% Avertin. Gamma irradiation was specifically directed to the testis in the following manner. Each mouse was placed in a lead chamber with only the testis and lower abdomen exposed through elliptical holes to the irradiating source (^137Cs Gammacell 40 irradiator [Nordion]). There were six aligned holes in the floor and roof of the chamber through which the gamma radiation passed unobstructed. After irradiation the animals were allowed to recover from the anesthesia on a warm heating pad or water bed until they regained consciousness. Histology. At selected time points, mice from each treatment group were euthanized, and testicular tissues to be examined were fixed in 10% formalin in PBS, pH 7.4, at 4° C. for 24 hours. Small slits in the testis capsule were made to allow penetration of the fixative. Fixed samples were washed four times with PBS, and embedded in paraffin using a Tissue Tek-II tissue processor (MET). Sections of 8 μm thickness were cut, stained with haemotoxylin and eosin (H&E), and mounted with Aquamount (Lerner Laboratories) on glass slides with coverslips. The sections were viewed on a Zeiss or Olympic light microscope with a 40× objective lens (total magnification 400×). Quantitative Histologic Analysis. Quantitative data were collected from the testes of two animals for each of the treatment groups at two months after treatment. (Table 2). For the control group only one mouse was used. The seminiferous tubules in a single section were counted using a 5× objective on a Zeiss light microscope (50× total magnification). Individual seminiferous tubules were examined at 400× total magnification. Seminiferous tubules were considered severely damaged if hardly any cells remained in the tubule, and the tubule consisted of a basement membrane with a single layer of cells, mostly spermatogonia, lying along the basement membrane. Moderately damaged tubules were tubules, in which some of the spermatogenic layers close to the lumen were partially sloughed off. Spermatozoan heads were counted in the tubules and averaged over the total number of tubules counted. Results of Histological Analysis. Obvious histological changes were not seen in the testis until two weeks after treatment. (Data no shown). […] A few Sertoli cell nuclei and spermatogonia were detectable in the periphery along the basement membrane. […] Some spermatids and spermatozoa were seen as well as a few spermatocytes.
# [2] = system: testicular cells within the seminiferous tubules; experiment: In vivo transduction of male germ cells using a viral vector (Example 14); set-up: species or system C57BL/6J mice; conditions: 4 μg/gm body wt IP, 44 days prior to viral infection
# Excerpt: A retroviral vector was used to transduce (genetically alter or modify) male germ cells of mice in vivo. Specifically, a pseudo-typed HIV-derived viral vector (L. Naldini et al., In vivo gene delivery and stable transduction of nondividing cells by a Lentiviral vector, Science 272:263-67 [1996]), was used, as modified by Carlos Lois to express Green Flourescent Protein (GFP) instead of the LacZ reporter gene, under the transcriptional control of the CMV promoter (HR′GFP).
# Recipient C57BL/6J mice were treated with busulfan 44 days prior to viral infection. C57BL/6J male mice were injected intraperitoneally with 0.1 ml busulfan at a concentration of 1 mg/ml. The dose was 4 μg busulfan/gm body wt. One pretreated mouse was anesthetized with Avertin (0.017 mls/gm body wt.), and a ventral midline incision was made and the right testis exposed.
# The vas efferentia were dissected away from the fat, and ten microlitres of HIV-derived GFP vector, HR′GFP, at a titer of 1×10^9 particles/ml were injected into the seminiferous tubules of the right testis via the vas efferens of a busulfan-treated C57 BL/6J mouse. Injection was done with a quartz glass micropipette attached to a Picospritzer II. The Picospritzer was set at 80 psi and gave 1 second bursts upon manual depression of a foot pedal. […]
# male germ cells = experiment: In vivo transduction of male germ cells followed by natural matings, transgenic progeny by PCR and Southern blot; set-up: species or system C57/B1/6J mice; conditions: IP 4 μg/gm body wt before in vivo transduction
# [3] = system: male germ cells in the testis; conditions: mice, cited from earlier work
structure (smiles),measurement,setting,value
"CS(=O)(=O)OCCCCOS(C)(=O)=O [Busulfan, 1,4-butanediol dimethanesulphonate]",elimination of germ cells from the tubules,testis germ cells,"many of the spermatocytes, spermatids and spermatozoa were eliminated from the tubules"
same,recovery of testis and fertility,testis germ cells,the testis recovered three to four months afterward and fertility was restored
same,Total No. Sperm heads,[1]; in 50 tubules,957 and 764
same,Average No. sperm heads/tubule,[1],19 and 15
same,"depopulation of seminiferous tubules, comparison of treatment groups",[1],damage to the spermatogenic process
same,"Moderately damaged tubules, percent of tubules counted",[1]; one animal per line,7% and 3%
same,No. Moderately damaged (seminiferous tubules),[1]; one animal per line,5 and 2
same,No. Severely damaged (seminiferous tubules),[1]; one animal per line,1 (1%) and 3
same,"Severely damaged tubules, percent of tubules counted",[1]; one animal per line,1 (1%) and 10%
same,mature spermatozoa in testis,[2],Very few mature spermatozoa were present
same,effect of pre-treatment on transduction of spermatogonia,male germ cells,enhanced the transduction of spermatogonia
same,depletion of male germ cells,[3]; 13 mg-40 mg/kg body wt.,deplete male germs cells in the testis
same,duration of azoospermia after treatment,[3]; doses over 30 mg/kg body weight,up to 56 days
